As usually defined, the EC50 is the midpoint of the concentration-response curve.

From US10604514B2, “6-(5-membered heteroaryl)isoquinolin-3-yl carboxamides and preparation and use thereof” (Samumed, LLC, priority 2017, dated 2020) come the findings set out here.

Like-named read-outs stand apart in the source and are kept apart here.

One assay deals with IL-6. Nature of the assay: IL-6 inhibition in LPS-stimulated human peripheral blood mononuclear cells (HTRF). Conditions: Homo sapiens, PBMC; for inhibition at 10 µM: read-out: percent value in parentheses below EC50 >10; for EC50: IL-6, LPS-stimulated huPBMCs, HTRF. It is filed as cell-based. Summed up: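 EC50 from a 4-parameter fit of DMSO-normalized HTRF (665/620 nm) IL-6 signal, duplicates. Compound was added to fresh human PBMCs in 1% FBS RPMI for 2 h (top 10 μM, 3-fold, 0.25% DMSO) before 22 h stimulation with LPS at 50 ng/mL, 37 °C.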
Background: TR-FRET usually uses a lanthanide donor and a delayed reading to cut background.

Assay [1] concerns SW480 colon carcinoma cells. The assay is described as follows: Cell viability assay (CellTiter-Glo) in SW480 cells.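 As to all read-outs here: SW480 cells stably carrying an Sp5-luciferase TCF/LEF reporter, luminescent ATP signal as viability measure, DMSO-treated cells as control.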 The class given is cell-based, human. Conditions: Homo sapiens; for EC50: 96 h, cell viability, SW480 cells, four days, CellTiter-Glo. In general terms: In ATP-based viability assays light output follows the ATP content of the culture.
Description: Representative compounds were screened using the assay procedure to assess the effect on cell viability as described below.
SW480 colon carcinoma cells were transduced with a lentiviral vector expressing luciferase with a human Sp5 promoter consisting of a sequence of eight TCF/LEF binding sites. SW480 cells stably expressing the Sp5-Luc reporter gene and a hygromycin resistance gene were selected by treatment with 150 μg/mL of hygromycin for 7 days. These stably transduced SW480 cells were expanded in cell culture and used for all further screening activities. Each compound was dissolved in DMSO as a 10 mM stock and used to prepare compound source plates.
For the Cell Viability Assays, the cells were plated at 2,000 cells/well in 384-well plates with a DMEM medium containing 1% fetal bovine serum, and 1% Penicillin-Streptomycin and incubated for four days hours at 37° C. and 5% CO2. Eight replicates of DMSO-treated cells served as controls and cells treated with compound were performed in duplicate.
After incubation, 10 μL of CellTiter-Glo (Promega) was added to each well allowed to incubate for approximately 12 minutes.
Dose-response curves were generated and EC50 concentration values were calculated using non-linear regression curve fit in the GraphPad Prism (San Diego, Calif.) or Dotmatics' Studies Software (Bishops Stortford, UK).
Another assay has as its target DYRK1A kinase (Homo sapiens (Human), UniProt Q13627). The assay is described as follows: DYRK1A kinase assay (Ser/Thr 18 peptide Z-lyte, FRET).
Assay [2] has as its system Wnt activity (Sp5-Luc reporter in SW480 colon carcinoma cells). Nature of the assay: Wnt activity screening assay (Sp5-Luc reporter gene assay). Conditions: Homo sapiens; for EC50: Sp5-Luc reporter, SW480 cells, 36 to 48 hours. The class given is cell-based, human. The procedure, abridged: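 Compounds at 10 points (1:3 steps, top 10 μM, 0.1% DMSO final) were incubated 36 to 48 h at 37° C with stable Sp5-Luc SW480 reporter cells in 1% FBS medium. Luciferase luminescence was then read and expressed relative to DMSO-only cells. Four-parameter variable-slope fitting yielded EC50 values.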
On the technique in general: In a reporter assay the amount or activity of a reporter protein is the signal.

For assay [3], the system named is LL29 cells (primary human fibroblasts derived from IPF patients), α-smooth muscle actin. Nature of the assay: Inhibition of fibrotic process: αSMA in TGF-β1-treated primary human fibroblasts from IPF patients (LL29 cells). The class given is cell-based. Particulars: Homo sapiens, Fibroblast; for EC50: 96 h, % αSMA-positive LL29 cells, TGF-β1 20 ng/mL, 4 days; for inhibition at 10 µM: read-out: percent inhibition at 10 μM. The procedure, abridged:
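Read-out is the percentage of αSMA-positive cells by high-content imaging, excluding SYTOX green-positive dead/apoptotic cells, normalized to TGF-β1-only wells on the same plate. LL29 cells were exposed for 4 days at 37 °C to 20 ng/mL TGF-β1 plus 11-point, 2-fold compound dilutions in 0.1% DMSO.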

The target in another assay is GSK3β kinase (Homo sapiens (Human), UniProt P49841). The assay is described as follows: GSK3β kinase assay (Ser/Thr 09 peptide Z-lyte, FRET).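 Also: Coumarin/fluorescein emission ratio converted to percent phosphorylation against unphosphorylated (0%) and phosphorylated (100%) controls, 1 h compound incubation at room temperature, 11-point threefold dilutions from 10 µM, run in duplicate.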 It is filed as biochemical. Conditions: method text calls the value IC50.
Chain of GSK3β kinase (P49841 whole entry): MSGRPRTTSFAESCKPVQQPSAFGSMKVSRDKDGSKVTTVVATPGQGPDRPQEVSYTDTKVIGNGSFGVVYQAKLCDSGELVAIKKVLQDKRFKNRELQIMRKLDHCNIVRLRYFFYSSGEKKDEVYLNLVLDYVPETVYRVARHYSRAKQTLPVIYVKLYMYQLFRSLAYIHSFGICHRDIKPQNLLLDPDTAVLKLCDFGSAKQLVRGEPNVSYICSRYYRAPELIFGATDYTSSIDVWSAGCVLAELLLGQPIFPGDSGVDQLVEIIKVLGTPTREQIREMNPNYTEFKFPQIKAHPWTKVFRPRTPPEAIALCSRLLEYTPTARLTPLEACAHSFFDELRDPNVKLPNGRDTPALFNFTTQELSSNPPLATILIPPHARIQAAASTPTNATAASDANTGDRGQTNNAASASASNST
Assay [4] has as its system Tau phosphorylation at Ser396 (pSer396), SH-SY5Y cells. The assay is described as follows: Tau phosphorylation at Ser396 (pSer396) in SH-SY5Y cells, ELISA/western blot.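 Also: cell lysates probed for reduced Tau pSer396 via ELISA (colorimetric) or western blot (chemiluminescence), both with one shared pSer396 antibody, EC50 for lowering phosphorylation.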 It is filed as cell-based, human. Conditions: Homo sapiens.
[5] abbreviates: DYRK1A kinase, method text calls the value IC50.
[6] abbreviates: SH-SY5Y cells, overnight (16-18 h), read-out: pSer396 Tau EC50.
Setting [7] is: SW480, read-out: percent inhibition at 10 μM.

Regarding `Cc1nnc(-c2ccc3cnc(NC(=O)N4CCC(N)CC4)cc3c2)s1` [Compound 150, 4-Amino-N-(6-(5-methyl-1,3,4-thiadiazol-2-yl)isoquinolin-3-yl)piperidine-1-carboxamide], the inhibition at 10 µM stood at 5.7% with IL-6 and 43.7% in assay [3]. Further, the EC50 is more than 10000 nM in the assay on IL-6; 3920 nM in assay [1]; 13 nM on DYRK1A kinase (setting [5]); 2190 nM in assay [2]; more than 10000 nM in assay [3]; 23 nM at GSK3β kinase. For the same compound, in assay [4] (setting [6]), the EC50 came to 0.272 µM.
For the compound `Cc1nnc(-c2ccc3cnc(NC(=O)N4[C@@H]5CC[C@H]4C[C@H](N)C5)cc3c2)s1` [Compound 151, (1R,5S)-3-exo-Amino-N-(6-(5-methyl-1,3,4-thiadiazol-2-yl)isoquinolin-3-yl)-8-azabicyclo[3.2.1]octane-8-carboxamide], the inhibition at 10 µM in the assay with IL-6 was determined as 13.1%; in assay [1] (setting [7]) it was 0%; in assay [2] (setting [7]) it was 4.4%. Also, the EC50 was more than 10000 nM with IL-6; more than 10000 nM in assay [1]; 9 nM at DYRK1A kinase (setting [5]); more than 10000 nM in assay [2]; 2690 nM in assay [3]; 103 nM at GSK3β kinase. The EC50 in assay [4] (SH-SY5Y, read-out: pSer396 Tau EC50 (μM)) turned out to be 2.6 µM.
In the case of `Cc1ncc(-c2ccc3cnc(NC(=O)C4CCC(N5CC5CF)CC4)cc3c2)o1` (stereo not drawn) [Compound 154, trans-4-(2-(fluoromethyl)aziridin-1-yl)-N-(6-(2-methyloxazol-5-yl)isoquinolin-3-yl)cyclohexane-1-carboxamide], the EC50 came out at 1130 nM with IL-6; 761 nM in assay [1]; 5 nM at DYRK1A kinase; 2760 nM in assay [2]; 240 nM in assay [3]; 124 nM on GSK3β kinase. In addition, in assay [4] (setting [6]), the EC50 was 0.58 µM.
As for `Cc1nnc(-c2ccc3cnc(NC(=O)N4CCC(NCCF)CC4)cc3c2)s1` [Compound 156, 4-((2-Fluoroethyl)amino)-N-(6-(5-methyl-1,3,4-thiadiazol-2-yl)isoquinolin-3-yl)piperidine-1-carboxamide], the inhibition at 10 µM in the assay on IL-6 amounted to 28.8%. Besides, the EC50 in the assay on IL-6 was more than 10000 nM; in assay [1], 2550 nM; at DYRK1A kinase (setting [5]), 7 nM; in assay [2], 2840 nM; in assay [3], 2380 nM; on GSK3β kinase, 34 nM. Also, the EC50 in assay [4] (setting [6]) came to 0.615 µM.
Regarding `[2H]c1c([2H])c([2H])c(C(=O)Nc2cc3cc(-c4cnc(C)n4C)ccc3cn2)c(F)c1[2H]` [Compound 157, N-(6-(1,2-Dimethyl-1H-imidazol-5-yl)isoquinolin-3-yl)-2-fluorobenzamide-3,4,5,6-d4], the inhibition at 10 µM in the assay with IL-6 came out at 0%. For the same compound, the EC50 in the assay with IL-6 was more than 10000 nM; in assay [1] it was 2380 nM; at DYRK1A kinase it was 19 nM; in assay [2], 1730 nM; in assay [3], 5790 nM; on GSK3β kinase, more than 10000 nM. Also, the EC50 in assay [4] (setting [6]) was found to be 0.72 µM.
As to `[2H]c1c([2H])c(C(=O)Nc2cc3cc(-c4cnc(C)n4C)ccc3cn2)c([2H])c([2H])c1F` [Compound 158, N-(6-(1,2-Dimethyl-1H-imidazol-5-yl)isoquinolin-3-yl)-4-fluorobenzamide-2,3,5,6-d4], the EC50 was 3360 nM in the assay on IL-6; 781 nM in assay [1]; 5 nM at DYRK1A kinase; 514 nM in assay [2]; 1220 nM in assay [3]; 2600 nM on GSK3β kinase. Besides, the EC50 in assay [4] (setting [6]) is more than 10 µM.
As to `[2H]c1c([2H])c([2H])c(C(=O)Nc2cc3cc(-c4cnc(C)n4C)ccc3cn2)c(Cl)c1[2H]` [Compound 159, 2-Chloro-N-(6-(1,2-dimethyl-1H-imidazol-5-yl)isoquinolin-3-yl)benzamide-3,4,5,6-d4], the inhibition at 10 µM is 1.6% in the assay with IL-6 and 31.4% in assay [3]. Also, the EC50 in the assay with IL-6 is more than 10000 nM; in assay [1], 8000 nM; at DYRK1A kinase it was 27 nM; in assay [2] it was 4200 nM; in assay [3], more than 10000 nM; at GSK3β kinase, more than 10000 nM. Also, in assay [4] (setting [6]), the EC50 is more than 10 µM.
Consider `[2H]c1c([2H])c(C(=O)Nc2cc3cc(-c4cnc(C)n4C)ccc3cn2)c([2H])c([2H])c1Cl` [Compound 160, 4-Chloro-N-(6-(1,2-dimethyl-1H-imidazol-5-yl)isoquinolin-3-yl)benzamide-2,3,5,6-d4], for which the EC50 worked out at 3300 nM with IL-6; 415 nM in assay [1]; 4 nM on DYRK1A kinase; 309 nM in assay [2]; 1010 nM in assay [3]; 3030 nM on GSK3β kinase. In addition, the EC50 in assay [4] (setting [6]) was more than 10 µM.
With `[2H]C([2H])([2H])c1ccc(C(=O)Nc2cc3cc(-c4cnc(C)n4C)ccc3cn2)cc1` [Compound 161, N-(6-(1,2-Dimethyl-1H-imidazol-5-yl)isoquinolin-3-yl)-4-(methyl-d3) benzamide], the inhibition at 10 µM in the assay with IL-6 amounted to 42.2%. Further, the EC50 in the assay on IL-6 was more than 10000 nM; in assay [1], 660 nM; on DYRK1A kinase it was 10 nM; in assay [2], 736 nM; in assay [3], 3000 nM; at GSK3β kinase it was 5670 nM. In addition, the EC50 in assay [4] (setting [6]) was more than 10 µM.
Take `[2H]c1c([2H])c(C(=O)Nc2cc3cc(-c4cnc(C)n4C)ccc3cn2)c([2H])c([2H])c1C` [Compound 162, N-(6-(1,2-Dimethyl-1H-imidazol-5-yl)isoquinolin-3-yl)-4-methylbenzamide-2,3,5,6-d4]: the inhibition at 10 µM in the assay on IL-6 stood at 44.7%. Moreover, the EC50 in the assay on IL-6 is more than 10000 nM; in assay [1], 653 nM; on DYRK1A kinase, 11 nM; in assay [2] it was 588 nM; in assay [3], 2000 nM; at GSK3β kinase it was 5060 nM. Besides, the EC50 in assay [4] (setting [6]) was more than 10 µM.
For the compound `[2H]c1c([2H])c(C([2H])([2H])[2H])c([2H])c([2H])c1C(=O)Nc1cc2cc(-c3cnc(C)n3C)ccc2cn1` [Compound 163, N-(6-(1,2-Dimethyl-1H-imidazol-5-yl)isoquinolin-3-yl)-4-(methyl-d3) benzamide-2,3,5,6-d4], the EC50 with IL-6 turned out to be 5720 nM; in assay [1] it was 795 nM; on DYRK1A kinase it was 5 nM; in assay [2], 604 nM; in assay [3] it was 876 nM; on GSK3β kinase, 4270 nM. Also, in assay [4] (setting [6]), the EC50 is more than 10 µM.
As for `[2H]C([2H])([2H])Oc1ccc(C(=O)Nc2cc3cc(-c4cnc(C)n4C)ccc3cn2)cc1` [Compound 164, N-(6-(1,2-Dimethyl-1H-imidazol-5-yl)isoquinolin-3-yl)-4-(methoxy-d3) benzamide], the EC50 in the assay with IL-6 was determined as 3390 nM; in assay [1], 782 nM; on DYRK1A kinase, 11 nM; in assay [2], 638 nM; in assay [3], 1480 nM; on GSK3β kinase, 4580 nM. Also, the EC50 in assay [4] (setting [6]) is more than 10 µM.
On to `[2H]c1c([2H])c(C(=O)Nc2cc3cc(-c4cnc(C)n4C)ccc3cn2)c([2H])c([2H])c1OC([2H])([2H])[2H]` [Compound 165, N-(6-(1,2-Dimethyl-1H-imidazol-5-yl)isoquinolin-3-yl)-4-(methoxy-d3) benzamide-2,3,5,6-d4], for which the EC50 turned out to be 2850 nM in the assay on IL-6; 752 nM in assay [1]; 6 nM on DYRK1A kinase; 498 nM in assay [2]; 998 nM in assay [3]; 3740 nM on GSK3β kinase. In assay [4] (setting [6]), the EC50 is more than 10 µM.
With `[2H]c1c([2H])c(C(=O)Nc2cc3cc(-c4cnc(C)n4C)ccc3cn2)c([2H])c([2H])c1OC` [Compound 166, N-(6-(1,2-Dimethyl-1H-imidazol-5-yl)isoquinolin-3-yl)-4-methoxybenzamide-2,3,5,6-d4], the EC50 in the assay on IL-6 was 3550 nM; in assay [1], 671 nM; at DYRK1A kinase, 9 nM; in assay [2], 525 nM; in assay [3], 1880 nM; at GSK3β kinase, 6380 nM. Moreover, the EC50 in assay [4] (setting [6]) is more than 10 µM.
Regarding `Cn1cc(-c2ccc3cnc(NC(=O)C4CCN(C(C)(C)C)CC4)cc3c2)cn1` [Compound 167, 1-(tert-Butyl)-N-(6-(1-methyl-1H-pyrazol-4-yl)isoquinolin-3-yl)piperidine-4-carboxamide], the EC50 with IL-6 stood at 1240 nM; in assay [1], 3340 nM; on DYRK1A kinase (setting [5]) it was 7 nM; in assay [2], 2350 nM; in assay [3], 293 nM; at GSK3β kinase, 96 nM. Further, in assay [4] (setting [6]), the EC50 came out at 0.288 µM.
